US5597798A, “Taxol and epidermal growth factor used to enhance treatment of ovarian cancer” (The Regents of the University of California, priority 1994, dated 1997)
Read-outs that look alike come from different tables or passages of the source.

Key:
[1] = system: 2008 human ovarian carcinoma cells; test: Colony forming assay, effect of EGF on sensitivity to cytotoxic agents; format: cell-based
cellular cAMP = test: Determination of cellular cAMP content; format: cell-based
human EGF receptor = test: Expression of human EGF receptor in transfected C127 cells (monoclonal antibody 528 staining); format: cell-based; settings: Desferrioxamine 10 μM for 60 hs
[2] = system: C127 mouse fibroblasts transfected with the human EGF receptor gene; test: Tetrazolium (MTT) growth rate assay, DDP sensitivity; format: cell-based
Procedure: Expression of the transferrin receptor gene is normally under the control of the transferrin […], and is regulated by iron (Owen and Kuhn, EMBO J. 6:1287 (1987)). Incubation with the iron chelator desferrioxamine induces expression of the transferrin receptor gene (Bridges and Cudkowicz, J. Biol. Chem. 259:12970 (1984)). […] Closed squares, transfected […] mouse fibroblasts pretreated with desferrioxamine; open squares, untreated cells. […] Louis, Mo.) was prepared at 1 mg/ml in DME media and on day 7, 50 μl are added to the microculture wells. After a 4 h incubation at 37° C., all the media was removed from each well, and 150 μl of 100% DMSO (dimethyl sulfoxide) was added to solubilize the MTT-formazan product. After thorough mixing, absorbance at 540 nm was measured with a Molecular Devices Vmax Kinetic microplate reader.

2008 cells = test: Colony forming (colonogenic) assay, effect of TPA, phorbol and staurosporine on DDP sensitivity
[3] = EGF and the cytotoxic agent concurrently for 1 h
[4] = Homo sapiens, Ovarian carcinoma cell, 1 h, read-out: IC50 in absence of EGF
[5] = mean ± SD of at least 3 experiments
[6] = read-out: IC50 in presence of EGF, EGF and the cytotoxic agent concurrently for 1 h

With `O=c1[nH]cc(F)c(=O)[nH]1` [5-fluorouracil] the “effect of EGF on sensitivity of 2008 cells to the agent (in words)” value (from here on “effect of EGF”) [1, 3] was “significant increase in sensitivity”, the IC50 [1, 4] was 20 µM and the “Dose modifying factor (ratio of the IC50 values in control and EGF-treated cells)” value [1, 5] was 1.8 ± 0.3. It also gave an IC50 [1, 6] of 11 µM.
With `C=C[C@@]1(C)CC(=O)[C@]2(O)[C@@]3(C)[C@@H](O)CCC(C)(C)[C@@H]3[C@H](O)[C@H](OC(C)=O)[C@@]2(C)O1` [Forskolin] the “increase in cAMP content” value (cellular cAMP) was 297 fold, the “cAMP level, 10 min. mean” value (cellular cAMP; 10 min treatment, means of 6 experiments) was 2135.0 pmol/mg protein and the “cAMP level, 60 min. mean” value (cellular cAMP; 60 min treatment, means of 6 experiments) was 6365.0 pmol/mg protein.
With `N.N.O=C([O-])C1(C(=O)[O-])CCC1.[Pt+2]` [carboplatin] the “effect of EGF” value [1, 3] was “significant increase in sensitivity”, the “Dose modifying factor (ratio of the IC50 values in control and EGF-treated cells)” value [1, 5] was 1.8 ± 0.4 and the IC50 ([1]; read-out: IC50 in absence of EGF, cytotoxic agent for 1 h, no EGF) was 120 µM. For the same compound, the IC50 [1, 6] was 67 µM.
For `CC(=O)N(O)CCCCCNC(=O)CCC(=O)N(O)CCCCCNC(=O)CCC(=O)N(O)CCCCCN` [desferrioxamine], the “increase in number of human EGF receptors” value (human EGF receptor) was “approximately 2 fold”, the “modulation of DDP sensitivity in the absence of EGF” value ([2]; 10 μM desferrioxamine, no EGF) was “did not modulate the sensitivity of transfected C127 cells in the absence of EGF” and the “toxicity to transfected C127 mouse fibroblasts” value ([2]; 10 μM, prolonged incubation for 2 weeks) was “non-toxic”. For the same compound, the “increase in sensitivity to the cytotoxicity of DDP vs control cells” value ([2]; desferrioxamine treated cells, in the presence of 10 nM EGF) was “approximately 2 fold”.
In the case of `COc1cccc2c1C(=O)c1c(O)c3c(c(O)c1C2=O)C[C@@](O)(C(=O)CO)C[C@@H]3O[C@H]1C[C@H](N)[C@H](O)[C@H](C)O1` [doxorubicin], the “effect of EGF” value [1, 3] is reported as “no significant effect”, the IC50 [1, 4] is reported as 1.5 µM and the “Dose modifying factor (ratio of the IC50 values in control and EGF-treated cells)” value [1, 5] is reported as 1.1 ± 0.2. For the same compound, the IC50 [1, 6] was 1.4 µM.
For `N[C@@H](Cc1ccc(N(CCCl)CCCl)cc1)C(=O)O` [melphalan], the “Dose modifying factor (ratio of the IC50 values in control and EGF-treated cells)” value [1] was 1.4 ± 0.4, the “effect of EGF” value [1] was “the effect did not reach the level of statistical significance” and the IC50 [1, 4] was 12 µM. It also gave an IC50 ([1]; read-out: IC50 in presence of EGF) of 9 µM.
In the case of `CC1=C[C@H]2[C@@]3(O)[C@H](C)[C@@H](O)[C@]4(O)[C@H]([C@@H]3C=C(CO)C[C@]2(O)C1=O)C4(C)C` [phorbol], the “effect of phorbol on DDP sensitivity” value (2008 cells; 10^7 M phorbol for 1-h with DDP) is reported as “failed to enhance DDP sensitivity, and, in fact slightly reduced it”.
In the case of `CN[C@@H]1C[C@H]2O[C@@](C)([C@@H]1OC)n1c3ccccc3c3c4c(c5c6ccccc6n2c5c31)C(=O)NC4` [staurosporine], the “effect of staurosporine by itself on sensitivity to DDP” value (2008 cells; control experiments) is reported as “did not enhance or inhibit sensitivity to DDP” and the “survival, % of that produced by DDP alone” value (2008 cells; staurosporine pretreatment 1 h, then DDP and TPA (all three agents)) is reported as 96%.
With `CC(=O)O[C@H]1C(=O)[C@@]2(C)[C@H]([C@H](OC(=O)c3ccccc3)[C@]3(O)C[C@H](OC(=O)[C@H](O)[C@@H](NC(=O)c4ccccc4)c4ccccc4)C(C)=C1C3(C)C)[C@]1(OC(C)=O)CO[C@@H]1C[C@@H]2O` [taxol] the “effect of EGF” value [1, 3] was “significant increase in sensitivity”, the IC50 [1, 4] was 0.01 µM and the IC50 ([1]; Homo sapiens, Ovarian carcinoma cell, 1 h, read-out: IC50 in presence of EGF) was 0.007 µM. The “Dose modifying factor (ratio of the IC50 values in control and EGF-treated cells)” value [1, 5] was 1.4 ± 0.1.
